ChEMBL document CHEMBL2380213, “Conformational restriction approach to BACE1 inhibitors II: SAR study of the isocytosine derivatives fixed with a cis-cyclopropane ring” (Bioorg Med Chem Lett, 2013)

Biological target: Beta-secretase 1 (Homo sapiens, UniProt P56817)
Experiment: Inhibition of human recombinant BACE1 expressed in Escherichia coli BL21(DE3) using Biotin-XSEVNLDAEFRHDSGC-Eu as substrate after 3 hrs by HTRF assay

Beta-secretase 1, sequence (P56817 whole entry): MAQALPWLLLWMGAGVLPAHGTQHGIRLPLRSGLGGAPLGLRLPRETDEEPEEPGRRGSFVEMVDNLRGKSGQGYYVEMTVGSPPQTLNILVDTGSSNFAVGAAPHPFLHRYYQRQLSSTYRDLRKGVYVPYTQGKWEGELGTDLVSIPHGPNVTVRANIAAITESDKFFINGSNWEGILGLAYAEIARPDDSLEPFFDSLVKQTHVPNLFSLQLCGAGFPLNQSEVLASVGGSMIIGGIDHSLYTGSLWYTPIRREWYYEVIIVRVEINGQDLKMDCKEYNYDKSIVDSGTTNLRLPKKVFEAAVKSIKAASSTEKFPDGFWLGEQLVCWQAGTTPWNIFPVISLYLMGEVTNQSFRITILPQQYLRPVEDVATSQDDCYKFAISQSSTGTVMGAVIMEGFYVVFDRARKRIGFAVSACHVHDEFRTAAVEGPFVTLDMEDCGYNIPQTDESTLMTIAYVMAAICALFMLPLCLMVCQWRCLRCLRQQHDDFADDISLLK

Compound | IC50 [µM]
Cc1cccc(CCc2cccc([C@@H]3C[C@@H]3c3cc(=O)n(C)c(N)n3)c2)c1 | > 200
Cc1ccc(CCc2cccc([C@@H]3C[C@@H]3c3cc(=O)n(C)c(N)n3)c2)cc1 | > 200
Cn1c(N)nc([C@H]2C[C@H]2c2cccc(-c3cccc(N)c3)c2)cc1=O | > 200
Cn1c(N)nc([C@H]2C[C@H]2c2cccc(Cc3ccccc3)c2)cc1=O | > 200
Cn1c(N)nc([C@H]2C[C@H]2c2cccc(CCCc3ccccc3)c2)cc1=O | > 200
Cn1c(N)nc([C@H]2C[C@H]2c2cccc(/C=C/c3ccccc3)c2)cc1=O | > 200
Cn1c(N)nc(CCc2cccc(CCc3ccccc3)c2)cc1=O | > 200

Results, then the molecule that gave them:

IC50 [µM] | Compound
22.2 | Cn1c(N)nc([C@H]2C[C@H]2c2cccc(CCc3ccccc3)c2)cc1=O
100 | COc1cccc(CCc2cccc([C@@H]3C[C@@H]3c3cc(=O)n(C)c(N)n3)c2)c1
84.9 | COc1cncc(-c2cccc([C@@H]3C[C@@H]3c3cc(=O)n(C)c(N)n3)c2)n1
> 200 | CN(C)c1cccc(-c2cccc([C@@H]3C[C@@H]3c3cc(=O)n(C)c(N)n3)c2)c1
120 | Cc1ccccc1CCc1cccc([C@@H]2C[C@@H]2c2cc(=O)n(C)c(N)n2)c1
> 200 | Cn1c(N)nc([C@H]2C[C@H]2c2cccc(C#Cc3ccccc3)c2)cc1=O
30.8 | COc1ccc(-c2cccc([C@@H]3C[C@@H]3c3cc(=O)n(C)c(N)n3)c2)cc1
39.4 | CCOc1cccc(-c2cccc([C@@H]3C[C@@H]3c3cc(=O)n(C)c(N)n3)c2)c1
47.5 | CSc1cccc(-c2cccc([C@@H]3C[C@@H]3c3cc(=O)n(C)c(N)n3)c2)c1
72.4 | Cn1c(N)nc([C@H]2C[C@H]2c2cccc(-c3cccc(F)c3)c2)cc1=O
74.9 | Cc1cccc(-c2cccc([C@@H]3C[C@@H]3c3cc(=O)n(C)c(N)n3)c2)c1
